Results taken from ChEMBL document CHEMBL1806395, “Recognition of drug degradation products by target proteins: isotetracycline binding to Tet repressor” (J Med Chem, 2011).

Experiments:
[1] = Binding affinity to recombinant TetR(D) expressed in Escherichia coli RB791 by fuorescence assay
[2] = Binding affinity to recombinant TetR(D) expressed in Escherichia coli RB791 by SPR analysis

CN(C)[C@@H]1C(O)=C(C(N)=O)C(=O)[C@@]2(O)C(O)=C3C(=O)c4c(O)ccc(Cl)c4[C@@](C)(O)[C@H]3C[C@@H]12
Ka [1]: 2.3 µM⁻¹
Ka [2]: 2.36 µM⁻¹

CN(C)[C@@H]1C(O)=C(C(N)=O)C(=O)[C@@]2(O)C(O)=C[C@@H]([C@]3(C)OC(=O)c4c(O)ccc(Cl)c43)C[C@@H]12
Ka [2]: 0.8 µM⁻¹
